Source: patent US20210317505A1, “IMPROVED DETECTION OF ANTICOAGULANTS IN BODY FLUIDS” (DOASENSE GmbH, priority 2017, published 2021)
Where “and” joins values, the source holds several entries; their conditions need not be identical. Identical values can stand only once. Like-named read-outs stand apart in the source and are kept apart here.

Target: factor Xa (Homo sapiens, UniProt P00742)
Details: for difference in reflectance units for the minimum and maximum concentration: 0 ng/mL vs. 1500 ng/mL, native urine; for intensity, mean, Laura Smart No. 1 / intensity, mean, Laura Smart No. 2 / intensity, mean, Laura Smart No. 3 / intensity, mean, all readers / intensity, single, Laura Smart No. 1 / intensity, single, Laura Smart No. 2 / intensity, single, Laura Smart No. 3: 380 nm
Text: Using a modified reflectance photometer, hereinafter also referred to as reader (Laura Smart (LS), ERBA Lachema), native urine samples were investigated using excitation light having either a wavelength of 380 nm or a wavelength of 470 nm. Herein, the samples under investigation contained the direct factor Xa inhibitor rivaroxaban or the direct thrombin inhibitor dabigatran. For each anticoagulant, samples with different concentrations were provided.
Test strips were used on which both the blood clotting factor (factor Xa or thrombin) and the respective chromogenic substrate conjugated to a detectable substance were immobilized, i.e. N-benzoyl-L-isoleucyl-L-glutamyl-L-glycyl-L-arginine-para-nitroaniline (SEQ ID NO:1) together with factor Xa, and N-(para-tosyl)-glycyl-L-prolyl-L-arginine-para-nitroanilide acetate together with thrombin. After dipping the test strip into the urine sample to be investigated for 2 to 3 seconds, incubation was allowed for 10 min. Then, the test strip was inserted into the reader. In total, three different readers (“Laura No. 1”, “Laura No. 2”, and “Laura No. 3”) were used in order to check for any device-specific issues.
In order to suppress fluorescence light which might originate from the released detestable substance (para-nitroaniline), a UV band-pass filter was used made of UG11 glass (Schott AG).
For each single measurement, an intensity value was put out by the respective reader, given in reflectance units (% REM). Each of the readers was able to split up the measured intensity into 1000 increments.
Generally, the higher the concentration of the anticoagulant in the sample, the less detectable substance is released from the chromogenic substrate by the corresponding blood dotting factor. Accordingly, in case of a high concentration of the anticoagulant, the absorption by the sample is low while the reflectance by the sample is high. In order to reliably evaluate the presence or absence of the anticoagulant in the sample, as a general rule, a low concentration of the anticoagulant in the sample should result in a % REM value as low as possible, while a high concentration of the anticoagulant in the sample should result in a % REM value as high as possible. In other words, the difference in reflectance units for the minimum and maximum concentration of the anticoagulant should be as large as possible.

[1] = rivaroxaban 100 ng/mL in native urine
[2] = rivaroxaban 200 ng/mL in native urine
[3] = rivaroxaban 400 ng/mL in native urine
[4] = rivaroxaban 1500 ng/mL in native urine

Sequence of factor Xa (P00742 235-488 limits assumed): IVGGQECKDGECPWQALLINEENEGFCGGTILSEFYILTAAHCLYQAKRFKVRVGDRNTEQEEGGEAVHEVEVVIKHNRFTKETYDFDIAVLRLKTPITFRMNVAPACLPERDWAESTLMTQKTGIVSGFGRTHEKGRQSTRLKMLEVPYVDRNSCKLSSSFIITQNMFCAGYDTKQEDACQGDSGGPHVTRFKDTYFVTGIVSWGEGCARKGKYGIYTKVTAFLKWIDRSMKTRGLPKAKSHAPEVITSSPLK
Sequence of factor Xa (P00742 41-179 partner limits assumed): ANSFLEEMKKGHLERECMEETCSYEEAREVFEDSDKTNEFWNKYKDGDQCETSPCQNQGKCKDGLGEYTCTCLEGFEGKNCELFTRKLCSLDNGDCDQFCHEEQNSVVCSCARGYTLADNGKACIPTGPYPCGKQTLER

O=C(NC[C@H]1CN(c2ccc(N3CCOCC3=O)cc2)C(=O)O1)c1ccc(Cl)s1 [rivaroxaban]
difference in reflectance units for the minimum and maximum concentration (excitation light 380 nm): about 400 % REM | difference in reflectance units for the minimum and maximum concentration (excitation light 470 nm): about 200 % REM | change of the measured intensity with concentration (dark urine samples, excitation light 380 nm): possible to observe a change of the measured intensity with the concentration | intensity, mean, Laura Smart No. 1 [1]: 181 % REM | intensity, mean, Laura Smart No. 2 [1]: 194 % REM | intensity, mean, Laura Smart No. 3 [1]: 199 % REM | intensity, mean, all readers [1]: 191 % REM | intensity, single, Laura Smart No. 1 [1]: 192 % REM and 159 % REM and 193 % REM | intensity, single, Laura Smart No. 2 [1]: 194 % REM and 191 % REM and 196 % REM | intensity, single, Laura Smart No. 3 [1]: 202 % REM and 196 % REM and 199 % REM | intensity, mean, Laura Smart No. 1 [2]: 276 % REM | intensity, mean, Laura Smart No. 2 [2]: 266 % REM | intensity, mean, Laura Smart No. 3 [2]: 315 % REM | intensity, mean, all readers [2]: 286 % REM | intensity, single, Laura Smart No. 1 [2]: 254 % REM and 336 % REM and 238 % REM | intensity, single, Laura Smart No. 2 [2]: 279 % REM and 265 % REM and 253 % REM | intensity, single, Laura Smart No. 3 [2]: 304 % REM and 342 % REM and 299 % REM | intensity, mean, Laura Smart No. 1 [3]: 387 % REM | intensity, mean, Laura Smart No. 2 [3]: 425 % REM | intensity, mean, Laura Smart No. 3 [3]: 387 % REM | intensity, mean, all readers [3]: 400 % REM | intensity, single, Laura Smart No. 1 [3]: 346 % REM and 406 % REM and 409 % REM | intensity, single, Laura Smart No. 2 [3]: 431 % REM and 413 % REM | intensity, single, Laura Smart No. 3 [3]: 423 % REM and 411 % REM and 326 % REM | intensity, mean, Laura Smart No. 1 [4]: 542 % REM | intensity, mean, Laura Smart No. 2 [4]: 518 % REM | intensity, mean, Laura Smart No. 3 [4]: 496 % REM | intensity, mean, all readers [4]: 519 % REM | intensity, single, Laura Smart No. 1 [4]: 537 % REM and 528 % REM and 560 % REM | intensity, single, Laura Smart No. 2 [4]: 588 % REM and 468 % REM and 499 % REM | intensity, single, Laura Smart No. 3 [4]: 501 % REM and 510 % REM and 476 % REM
